# Assay results reported in patent publication US11147792B2, “Inhibitors of microbially induced amyloid” (Axial Therapeutics, Inc, priority 2017, dated 2021).
# Where two headings read alike, the source gives them in different places.
# Tests used:
# Assay type in all cases: biochemical
# [1] = target: T1, E. coli CsgA (Escherichia coli, UniProt P28307); assay: In vitro ThioflavinT assay of CsgA aggregation
# T1 construct: made in house; host or cells: E. coli NEB 3016 slyD::kan, pET11d
# Procedure: In Vitro ThioflavinT Assay to Determine Effects of Compounds on CsgA Aggregation.
# To assess the effects of compounds on aggregation of E. coli CsgA, a cell-free assay was performed using purified CsgA and Thioflavin T. In the assay, histidine-tagged CsgA was over-expressed in E. coli NEB 3016 slyD::kan cells harboring a pET11d vector containing csgA with the sequence for 6 histidine residues added to the C-terminus and without the Sec signal (amino acid 1-22) sequence. To induce over-expression of CsgA, 0.5 mM isopropyl β-D-1-thiogalactopyranoside (“IPTG”) was added to cultures with an optical density at 600 nm (OD600) of 0.8-1, and induced cells were cultured at 37° C. for 1 hour prior to harvest via centrifugation. Cells were lysed under denaturing conditions with 8 M guanidine hydrochloride in 50 mM potassium phosphate buffer pH 7.3, and CsgA was purified via immobilized-metal affinity chromatography by batch purification with Nickel-NTA agarose and a combination of low pressure and gravity flow through a disposable polypropylene column, including washes under low pressure applied manually via application of a syringe plunger to the column with 50 mM potassium phosphate buffer pH 7.3 followed by 12.5 mM imidazole in 50 mM potassium phosphate buffer pH 7.3, and elution by gravity flow with 125 mM imidazole in 50 mM potassium phosphate buffer pH 7.3. Buffers with imidazole were freshly prepared prior to the protein purification. Purified CsgA was passed through a 30 kDa molecular weight cut-off filter and passed through a desalting column. All steps of the CsgA purification in the absence of guanidine hydrochloride were conducted in rapid succession with as little delay as possible. The assay was conducted in 96-well black microplates with 40 μM ThioflavinT, 1% DMSO, CsgA at 20 μM, and compounds at 20 μM. Plates were incubated at 25° C. in a Tecan Nano F200 plate reader with excitation at 438 nm using a 439 nm filter with a bandwidth of 8 nm, and emission at 495 nm with a 490 nm filter with a bandwidth of 10 nm. During the assay, plates were shaken initially for 5 seconds and subsequently for 3 seconds prior to fluorescent readings. Readings were performed every 20 minutes for up to 24 hours. The effect of compounds on CsgA aggregation in the assay was determined with data from 18 hours, following the plateau of the fluorescent signal in the untreated (no compound) control wells containing CsgA. Fluorescence values for each compound with CsgA were first adjusted by subtracting the average fluorescence of the compound in the absence of CsgA. These adjusted values were normalized by dividing them by the average fluorescence in the no-compound (i.e., untreated) control wells containing CsgA […], and the average normalized fluorescence with the compound was expressed as a percentage of the average fluorescence observed in untreated controls.
# [2] = target: T2, human α-synuclein (Homo sapiens, UniProt P37840); assay: In vitro Thioflavin T assay of α-synuclein aggregation
# T2 construct: made in house; host or cells: E. coli
# Procedure: In Vitro Thioflavin T Assay to Determine the Effects of Compounds on α-Synuclein Aggregation.
# The ammonium sulfate pellet was washed with an equal volume of 100 mM ammonium acetate in ethanol, pelleted via centrifugation, washed twice with ethanol, dried overnight, resuspended in 10 mM Tris pH 7.4, and passed through a 50 kDa cut-off column. The assay was conducted in 96-well black microplates with a single 2 mm bead in each well, 40 μM ThioflavinT, 1% DMSO, 50 μM α-synuclein, 100 mM sodium chloride, 9.3 mM potassium phosphate pH 7.3, 4.6 mM Tris pH 7.4 (added as the solvent for α-synuclein or independently for controls lacking α-synuclein), and compounds at 1 μM or 50 μM. […] Readings were performed hourly for up to 73 hours. The effect of compounds on α-synuclein aggregation in the assay was determined with data from 40 hours, following the plateau of the fluorescent signal in the untreated (no compound) control wells containing α-synuclein. Fluorescence values for each compound with α-synuclein were first adjusted by subtracting the average fluorescence of the compound in the absence of α-synuclein.
# [3] = target: T3, α-synuclein seeded by E. coli CsgA (Homo sapiens, UniProt P37840); assay: In vitro Thioflavin T assay of CsgA-seeded α-synuclein aggregation; conditions: compounds at 50 μM; for inhibition at 50 µM: 2 μM CsgA, 50 μM α-synuclein, ThT fluorescence at 40 hours
# T3 construct: made in house; host or cells: E. coli NEB 3016 slyD::kan (CsgA, pET11d); E. coli (α-synuclein)
# Procedure: In Vitro Thioflavin T Assay to Determine the Effects of Compounds on CsgA-Seeded α-Synuclein Aggregation.
# To induce over-expression of CsgA, 0.5 mM IPTG was added to cultures with an optical density at 600 nm (OD600) of 0.8-1, and induced cells were cultured at 37° C. for 1 hour prior to harvest via centrifugation. […] Buffers with imidazole were freshly prepared prior to the protein purification. Purified CsgA was passed through a 30 kDa molecular weight cut-off filter and through a desalting column. All steps of the CsgA purification in the absence of guanidine hydrochloride were conducted in rapid succession with as little delay as possible. […] The ammonium sulfate pellet was washed with an equal volume of 100 mM ammonium acetate in ethanol, pelleted via centrifugation, washed twice with ethanol, dried overnight, resuspended in 10 mM Tris pH 7.4, and passed through a 50 kDa cut-off column. The assay was conducted in 96-well black microplates with a single glass 2 mm bead per well, 40 μM ThioflavinT, 1% DMSO, 2 μM CsgA, 50 μM α-synuclein, 100 mM sodium chloride, 9.3 mM potassium phosphate pH 7.3, and compounds at 50 μM. […] The effect of compounds on CsgA-seeded α-synuclein aggregation in the assay was determined with data from 40 hours, following the plateau of the fluorescent signal in the untreated (no compound) control wells containing CsgA and α-synuclein. Fluorescence values for each compound with CsgA and α-synuclein were first adjusted by subtracting the average fluorescence of the compound in the absence of CsgA and α-synuclein.
# [4] = read-out: Inhibition of Aggregation CsgA (compound activity range), compounds at 20 μM, CsgA at 20 μM, ThT fluorescence at 18 hours
# [5] = read-out: Inhibition of Aggregation CsgA, compounds at 20 μM, CsgA at 20 μM, ThT fluorescence at 18 hours
# [6] = compounds at 50 μM, 50 μM α-synuclein, ThT fluorescence at 40 hours, read-out: Inhibition of Aggregation αSyn
# [7] = compounds at 50 μM, 50 μM α-synuclein, ThT fluorescence at 40 hours, read-out: Inhibition of Aggregation αSyn (compound activity range)
# [8] = read-out: Inhibition of Aggregation CsgA-seeded αSyn
# [9] = read-out: Inhibition of Aggregation αSyn
# [10] = read-out: Inhibition of Aggregation αSyn (compound activity range)
# [11] = read-out: Inhibition of Aggregation CsgA-seeded αSyn (compound activity range)
# T1 sequence (P28307 23-151): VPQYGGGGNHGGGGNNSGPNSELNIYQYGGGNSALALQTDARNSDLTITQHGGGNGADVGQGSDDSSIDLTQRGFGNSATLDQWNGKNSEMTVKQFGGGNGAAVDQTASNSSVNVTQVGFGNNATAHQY
SMILES,"Inhibition of Aggregation CsgA (compound activity range) ([1]; compounds at 20 μM, CsgA at 20 μM, ThT fluorescence at 18 hours, 20 µM)","inhibition at 20 µM [1, 4] [%]","inhibition at 20 µM [1, 5] [%]","inhibition at 50 µM [2, 6] [%]","inhibition at 50 µM [2, 7] [%]","inhibition at 50 µM [3, 8] [%]",Effect on CsgA aggregation (in words) ([1]; compounds at 20 μM),Effect on α-synuclein aggregation (in words) ([2]; compounds at 50 μM),"inhibition at 50 µM [2, 9] [%]","inhibition at 50 µM [2, 10] [%]",Effect on CsgA-seeded α-synuclein aggregation (in words) [3],"inhibition at 50 µM [3, 11] [%]"
"COc1cc(O)ccc1O [methoxy-hydroquinone, 2-methoxybenzene-1,4-diol]",(++) to (+++),30 to 60,50,100,> 60,80,,,,,,
"C=CCc1ccc(OC)c(OC)c1 [4-allyl-1,2-dimethoxy-benzene, 4-allyl-1,2-dimethoxybenzene]",,< -10,-18,,,36,without notable inhibition,without notable inhibition,5,-10 to 10,demonstrated inhibition,30 to 60
"Cc1ccc(C(C)C)c(O)c1 [thymol, 5-methyl-2-(propan-2-yl)phenol]",,-10 to 10,-4,,,9,little to no effect,,-21,< -10,little to no effect,-10 to 10
"C/C=C/c1ccc(O)c(OC)c1 [isoeugenol, 2-methoxy-4-(prop-1-en-1-yl)phenol]",,-10 to 10,-4,9,-10 to 10,35,without notable inhibition,without notable inhibition,,,demonstrated inhibition,30 to 60
